Reference: ChEMBL document CHEMBL4765227, “Hit to lead optimization of a series of N-[4-(1,3-benzothiazol-2-yl)phenyl]acetamides as monoacylglycerol lipase inhibitors with potential anticancer activity” (Eur J Med Chem, 2016)

Experiments:
Type in all cases: functional
SF-539 = assay: Growth inhibition of human SF-539 cells incubated for 48 hrs by sulforhodamine B assay
EKVX = assay: Growth inhibition of human EKVX cells incubated for 48 hrs by sulforhodamine B assay
MDA-MB-435 = assay: Growth inhibition of human MDA-MB-435 cells incubated for 48 hrs by sulforhodamine B assay
UACC-257 = assay: Growth inhibition of human UACC-257 cells incubated for 48 hrs by sulforhodamine B assay
NCI-H226 = assay: Growth inhibition of human NCI-H226 cells incubated for 48 hrs by sulforhodamine B assay
NCI-H522 = assay: Growth inhibition of human NCI-H522 cells incubated for 48 hrs by sulforhodamine B assay
T47D = assay: Growth inhibition of human T47D cells incubated for 48 hrs by sulforhodamine B assay
RXF 393 = assay: Growth inhibition of human RXF 393 cells incubated for 48 hrs by sulforhodamine B assay
COLO 205 = assay: Growth inhibition of human COLO 205 cells incubated for 48 hrs by sulforhodamine B assay
SF-295 = assay: Growth inhibition of human SF-295 cells incubated for 48 hrs by sulforhodamine B assay
SF-268 = assay: Growth inhibition of human SF-268 cells incubated for 48 hrs by sulforhodamine B assay
MOLT-4 = assay: Growth inhibition of human MOLT-4 cells incubated for 48 hrs by sulforhodamine B assay
SK-MEL-5 = assay: Growth inhibition of human SK-MEL-5 cells incubated for 48 hrs by sulforhodamine B assay
CAKI-1 = assay: Growth inhibition of human CAKI-1 cells incubated for 48 hrs by sulforhodamine B assay
TK-10 = assay: Growth inhibition of human TK-10 cells incubated for 48 hrs by sulforhodamine B assay
Malme-3M = assay: Growth inhibition of human Malme-3M cells incubated for 48 hrs by sulforhodamine B assay
SK-OV-3 = assay: Growth inhibition of human SK-OV-3 cells incubated for 48 hrs by sulforhodamine B assay
SNB-75 = assay: Growth inhibition of human SNB-75 cells incubated for 48 hrs by sulforhodamine B assay
HCT-15 = assay: Growth inhibition of human HCT-15 cells incubated for 48 hrs by sulforhodamine B assay
MDA-MB-468 = assay: Growth inhibition of human MDA-MB-468 cells incubated for 48 hrs by sulforhodamine B assay
M14 = assay: Growth inhibition of human M14 cells incubated for 48 hrs by sulforhodamine B assay
SR = assay: Growth inhibition of human SR cells incubated for 48 hrs by sulforhodamine B assay
786-0 = assay: Growth inhibition of human 786-0 cells incubated for 48 hrs by sulforhodamine B assay
OVCAR-5 = assay: Growth inhibition of human OVCAR-5 cells incubated for 48 hrs by sulforhodamine B assay
IGROV-1 = assay: Growth inhibition of human IGROV-1 cells incubated for 48 hrs by sulforhodamine B assay
SK-MEL-2 = assay: Growth inhibition of human SK-MEL-2 cells incubated for 48 hrs by sulforhodamine B assay
UO-31 = assay: Growth inhibition of human UO-31 cells incubated for 48 hrs by sulforhodamine B assay
UACC-62 = assay: Growth inhibition of human UACC-62 cells incubated for 48 hrs by sulforhodamine B assay
OVCAR-3 = assay: Growth inhibition of human OVCAR-3 cells incubated for 48 hrs by sulforhodamine B assay
MCF7 = assay: Growth inhibition of human MCF7 cells incubated for 48 hrs by sulforhodamine B assay
Hs-578T = assay: Growth inhibition of human Hs-578T cells incubated for 48 hrs by sulforhodamine B assay
OVCAR-4 = assay: Growth inhibition of human OVCAR-4 cells incubated for 48 hrs by sulforhodamine B assay
BT-549 = assay: Growth inhibition of human BT-549 cells incubated for 48 hrs by sulforhodamine B assay
RPMI-8226 = assay: Growth inhibition of human RPMI-8226 cells incubated for 48 hrs by sulforhodamine B assay
A498 = assay: Growth inhibition of human A498 cells incubated for 48 hrs by sulforhodamine B assay
[1] = read-out: LC50 (the source's name)

O=C(CNc1c(Cl)cccc1Cl)Nc1ccc(-c2nc3ccccc3s2)cc1
GI50 (SF-539): 1.83 µM | LC50 (SF-539): 6.34 µM | TGI (SF-539): 3.41 µM | GI50 (EKVX): 8.29 µM | LC50 (EKVX): 55.2 µM | TGI (EKVX): 22.6 µM | GI50 (MDA-MB-435): 2.6 µM | LC50 (MDA-MB-435): 99.6 µM | TGI (MDA-MB-435): 11.3 µM | GI50 (UACC-257): 3.61 µM | LC50 (UACC-257): 63.1 µM | TGI (UACC-257): 11.9 µM | GI50 (NCI-H226): 2.02 µM | LC50 (NCI-H226): > 100 µM | TGI (NCI-H226): 5.32 µM | GI50 (NCI-H522): 1.29 µM | LC50 (50% lethal concentration) (NCI-H522): 7.58 µM | TGI (NCI-H522): 3.13 µM | GI50 (T47D): 1.86 µM | LC50 (concentration killing 50% of cells) (T47D): > 100 µM | TGI (T47D): 5.44 µM | GI50 (RXF 393): 1.63 µM | LC50 (concentration killing 50% of cells) (RXF 393): 7.27 µM | TGI (RXF 393): 3.44 µM | GI50 (COLO 205): 2.1 µM | LC50 (COLO 205): 8.79 µM | TGI (COLO 205): 4.29 µM | GI50 (SF-295): 15.3 µM | LC50 (concentration causing 50% net cell kill) (SF-295): 60.5 µM | TGI (SF-295): 30.4 µM | GI50 (SF-268): 1.99 µM | LC50 (SF-268): 9.52 µM | TGI (SF-268): 4.35 µM | GI50 (MOLT-4): 1.05 µM | LC50 (MOLT-4): > 100 µM | TGI (MOLT-4): 7.43 µM | GI50 (SK-MEL-5): 1.43 µM | LC50 (50% lethal concentration) (SK-MEL-5): 5.88 µM | TGI (SK-MEL-5): 2.9 µM | GI50 (CAKI-1): 2.3 µM | LC50 (concentration killing 50% of cells) (CAKI-1): 27.4 µM | TGI (CAKI-1): 6.71 µM | GI50 (TK-10): 2.15 µM | LC50 (TK-10): 18.3 µM | TGI (TK-10): 5.41 µM | GI50 (Malme-3M): 1.71 µM | TGI (Malme-3M): 3.43 µM | CC50 (Malme-3M; [1]): 6.88 µM | GI50 (SK-OV-3): 5.84 µM | LC50 (concentration killing 50% of cells) (SK-OV-3): > 100 µM | TGI (SK-OV-3): 50.9 µM | GI50 (SNB-75): 2.97 µM | LC50 (concentration killing 50% of cells) (SNB-75): 39.2 µM | TGI (SNB-75): 15.4 µM | GI50 (HCT-15): 1.58 µM | TGI (HCT-15): 4.5 µM | CC50 (HCT-15; [1]): 53.7 µM | GI50 (MDA-MB-468): 0.0251 µM | TGI (MDA-MB-468): 0.137 µM | CC50 (MDA-MB-468; [1]): 4.33 µM | GI50 (M14): 2.2 µM | TGI (M14): 6.55 µM | CC50 (M14; [1]): 60.1 µM | GI50 (SR): 1.05 µM | LC50 (SR): > 100 µM | TGI (SR): 5.33 µM | GI50 (786-0): 1.76 µM | LC50 (50% lethal concentration) (786-0): 8.34 µM | TGI (786-0): 3.83 µM | GI50 (OVCAR-5): 1.92 µM | LC50 (concentration killing 50% of cells) (OVCAR-5): 9.53 µM | TGI (OVCAR-5): 4.28 µM | GI50 (IGROV-1): 1.92 µM | TGI (IGROV-1): 4.33 µM | CC50 (IGROV-1; [1]): 9.73 µM | GI50 (SK-MEL-2): 4.14 µM | LC50 (lethal concentration, 50% cell kill) (SK-MEL-2): > 100 µM | TGI (SK-MEL-2): 18.8 µM | GI50 (UO-31): 1.5 µM | LC50 (concentration killing 50% of cells) (UO-31): 8.5 µM | TGI (UO-31): 3.57 µM | GI50 (UACC-62): 1.72 µM | LC50 (UACC-62): 8.97 µM | TGI (UACC-62): 3.92 µM | GI50 (OVCAR-3): 1.81 µM | LC50 (OVCAR-3): 5.79 µM | TGI (OVCAR-3): 3.24 µM | GI50 (MCF7): 0.0371 µM | LC50 (MCF7): 39.8 µM | TGI (MCF7): 2.49 µM | GI50 (Hs-578T): 5.58 µM | LC50 (Hs-578T): > 100 µM | TGI (Hs-578T): 69.3 µM | GI50 (OVCAR-4): 1.68 µM | LC50 (OVCAR-4): 9.74 µM | TGI (OVCAR-4): 4.05 µM | GI50 (BT-549): 1.7 µM | LC50 (concentration killing 50% of cells) (BT-549): 44.4 µM | TGI (BT-549): 5.39 µM | GI50 (RPMI-8226): 2.07 µM | LC50 (RPMI-8226): > 100 µM | TGI (RPMI-8226): 5.21 µM | GI50 (A498): 13.8 µM | TGI (A498): 26.9 µM | CC50 (A498; [1]): 52.4 µM
